Question: Which melting point does the source give for COC(=O)N=C(NC(=O)OC)Nc1ccc(SCC(C)C)cc1NC(=O)CSC here?
Answer: 138 to 140 °C

Question: With CN1CCC23c4c5cccc4OC2C(=O)CCC3(O)C1C5 (configuration not stated) as the compound, how does the melting point read?
Answer: 223 to 225 °C

Question: For O=C(c1cc(F)cc(F)c1)c1cc(F)cc(F)c1, which melting point is on record?
Answer: 79 °C

Question: With O=C(NC(=O)N1CCC(COc2ccccc2)CC1)c1ccc(O)cc1 as the compound, how does the melting point read?
Answer: 207 °C

Question: Which melting point does the source give for Cn1c(CNCC2CCOC2)cc2cc(NC(=O)c3ccc(OC[C@@H]4CCCO4)cc3)ccc21 (some centres not stated) here?
Answer: 128 to 129 °C

Question: Which melting point does the source give for COC(C)=CC(=O)Nc1ccc(Cl)c(Cl)c1 here?
Answer: 123 °C

Question: Which melting point does the source give for COC(=O)CSc1cccc(NC(=O)NCC(=O)N(CC(=O)OC(C)(C)C)c2ccccc2C(=O)c2ccccc2)c1 here?
Answer: 131 to 133 °C

Question: For CC(=NC1CCCCC1)NC12CC3CC(CC(C3)C1)C2, which melting point is on record?
Answer: 185 to 187 °C

Question: For NCc1cccc2nnsc12, which melting point is on record?
Answer: 136 to 139 °C

Question: For Cn1cc(-c2ccccc2)c(=S)c(-c2cccc(Br)c2)c1, which melting point is on record?
Answer: 185 to 188 °C

Question: Which melting point does the source give for CCC1(CCCN2CCN(c3cccc(Cl)c3)CC2)C(=O)Nc2ccc(Cl)cc21 (configuration not stated) here?
Answer: 117 to 119 °C

Question: With CCSc1cc(C)nc(SCC)c1NC(=O)CCCCCCSc1nc2ccccc2[nH]1 as the compound, how does the melting point read?
Answer: 151 to 156 °C

Question: Which melting point does the source give for CCc1[nH]n(C2CCCC2)c2nc(Cc3ccc(OC)c(OC)c3)nc(=O)c1-2 here?
Answer: 148 to 149 °C

Question: With CCOC(=O)c1cccc(-n2nc(C(=O)OCC)c3csc(N)c3c2=O)c1 as the compound, how does the melting point read?
Answer: 159 to 160 °C

Question: With CCOC(=O)c1c(C)nn(-c2ccc(F)cc2)c1C as the compound, how does the melting point read?
Answer: 59 to 60 °C

Question: For COC1=CC(=O)CN(Cc2ccccc2)C1, which melting point is on record?
Answer: 113 to 115 °C

Question: For CCC(=O)C1=C(O)CC(c2c(C)c(C)c(C)c(C)c2C)CC1=O (configuration not stated), which melting point is on record?
Answer: 84 °C

Question: With Cc1ncc(CN2C(=O)c3ccccc3C2=O)n1-c1ccc(Cl)cc1Cc1ccccc1F as the compound, how does the melting point read?
Answer: 152 to 156 °C

Question: With Cc1nc2ccc(C(=O)NS(=O)(=O)c3ccccc3)nc2n1Cc1ccc(C(=O)O)cc1Cl as the compound, how does the melting point read?
Answer: 155 to 160 °C

Question: For CC1=Nc2ccccc2C1(C)CCCCCC(=O)O (configuration not stated), which melting point is on record?
Answer: 115 to 118 °C

Question: For CC(=O)C1=C(O)C(=C(C)Nc2cc(NC(=O)C(O)CO)cc(NC(=O)C(O)CO)c2)C(=O)OC1=O (configuration not stated), which melting point is on record?
Answer: 231 °C

Question: With COC(=O)/C(=C\C=C\c1sc2ccccc2c1C)OC as the compound, how does the melting point read?
Answer: 91 to 92 °C

Question: For CC(O)c1ccc(Cc2ccccc2CO)cc1 (configuration not stated), which melting point is on record?
Answer: 96 to 97 °C

Question: Which melting point does the source give for CC(C)=NNc1cc2c(nn1)CCN(C(=O)c1ccccc1F)C2 here?
Answer: 200 to 203 °C

Question: Which melting point does the source give for O=[N+]([O-])c1cn2c(n1)O[C@@H](COc1ccc(N3CCC(OCc4ccc(OC(F)(F)F)cc4)CC3)cc1)C2 here?
Answer: 188 to 189 °C

Question: With O[C@@H]1CN=C(c2ccc(N3CCOCC3)cc2)O[C@H]1c1ccccc1 (racemic) as the compound, how does the melting point read?
Answer: 150 °C

Question: Which melting point does the source give for O=C(O)c1ccccc1NC(=S)Cc1ccccc1 here?
Answer: 166 to 167 °C

Question: Which melting point does the source give for CC1(C)c2ccc(C(F)CN3CCN(c4nsc5ccccc45)CC3)cc2C(C)(C)C1O (configuration not stated) here?
Answer: 49 to 54 °C

Question: With CCn1c(N)c(C(N)=O)c(=O)c2cnc(Nc3ccc(O)cc3)nc21 as the compound, how does the melting point read?
Answer: > 260 °C

Question: Which melting point does the source give for CCOC(=O)c1ccc(O)nc1 here?
Answer: 143 to 144 °C

Question: Which melting point does the source give for COc1cc2c(cc1OCc1ccccc1)CCN(Cc1cccc(O[Si](C(C)C)(C(C)C)C(C)C)c1)C2 here?
Answer: 78 to 79 °C

Question: For O=C(O)CN1C(=O)N(Cc2cccc([N+](=O)[O-])c2)C(=O)C1O (configuration not stated), which melting point is on record?
Answer: 153 to 155 °C

Question: For CCCCCCCCCCNC(=O)C=Cc1cccc(NC(=O)/C=C\C(=O)O)c1, which melting point is on record?
Answer: 187 to 188 °C

Question: With Cc1c(SCCN2CCOCC2)ccnc1CSc1nc2ccccc2n1CC(N)=O as the compound, how does the melting point read?
Answer: 178 to 180 °C

Question: With COc1cc(Cl)c(/C(=N\O)c2ccccc2F)cc1Cl as the compound, how does the melting point read?
Answer: 188 °C

Question: With Nc1ncnc2c1c(-c1cccc(O)c1)nn2Cc1oc2ccccc2c(=O)c1-c1ccccc1 as the compound, how does the melting point read?
Answer: 154 to 158 °C

Question: For C=CCC1(c2ccc(Br)cc2)C2CCC(C(=O)C2)C1Nc1ccc(OC)cc1 (configuration not stated), which melting point is on record?
Answer: 68 to 69 °C

Question: With CNC(=O)c1cc(-c2ccc(OC)c(F)c2)nn(CC(C)C)c1=O as the compound, how does the melting point read?
Answer: 153 to 155 °C

Question: Which melting point does the source give for CON=C(C(=O)O)c1csc(NC(=O)OCC(Cl)(Cl)Cl)n1 here?
Answer: 162 to 163 °C

Question: Which melting point does the source give for CCOC(=O)C1=C(C)N(C(C)=O)C(c2csc(C)n2)=NC1c1cccc(F)c1 (configuration not stated) here?
Answer: 127 to 130 °C

Question: With CCCCCc1c(-c2ccc3cc(OCC#N)ccc3c2)n(Cc2ccccc2)c2ccccc12 as the compound, how does the melting point read?
Answer: 109 to 112 °C

Question: With CCOC(=O)c1cn(C)nc1C(F)F as the compound, how does the melting point read?
Answer: 43 to 46 °C

Question: For O=C(O)c1ncn2c1[C@@H]1CCN1C(=O)c1c(Cl)cccc1-2, which melting point is on record?
Answer: 244 to 245 °C

Question: With O=C(O)c1ccc(-c2nn(-c3ccccc3C(=O)O)c3ccc([N+](=O)[O-])cc23)cc1 as the compound, how does the melting point read?
Answer: 348 to 350 °C

Question: With CCOC(=O)c1ccc(N2CCN(C)CC2)nn1 as the compound, how does the melting point read?
Answer: 106 °C

Question: With CCCCCCCCCCCCCCOc1ccc(C(=O)Nc2ccc(CO)cc2)cc1 as the compound, how does the melting point read?
Answer: 140 to 145 °C

Question: Which melting point does the source give for Cn1c(=O)c(C#N)c(N2CCN(C(=O)c3cccs3)CC2)c2ccccc21 here?
Answer: 247 °C

Question: For IC#CCSc1cccnc1, which melting point is on record?
Answer: 114 to 116 °C

Question: With CCOC(=O)Cc1c[nH]c2cc(C3CC3)nn2c1=O as the compound, how does the melting point read?
Answer: 280 to 283 °C

Question: With CCOc1ccc(C2=NN(C(CC)CCCCC(=O)O)C(=O)C3CCCCC23)cc1OCC (configuration not stated) as the compound, how does the melting point read?
Answer: 90 to 91 °C

Question: Which melting point does the source give for CN1C(=O)CC[C@]2(C)c3ccc(-c4cccc(CNC(c5ccccc5)c5ccccc5)c4)cc3CC[C@@H]12 here?
Answer: 55 to 57 °C

Question: For CCN1CCCc2cc(C=C3SC(=O)NC3=O)ccc21, which melting point is on record?
Answer: 238 to 241 °C

Question: For OC(c1ccc(Cl)cc1)c1cccc(Br)n1 (configuration not stated), which melting point is on record?
Answer: 64.5 to 65 °C

Question: With CCOc1cc(Oc2ccc(S(C)(=O)=O)nc2)cc2cc(C3=NCC(CC(N)=O)S3)[nH]c12 (configuration not stated) as the compound, how does the melting point read?
Answer: 195 to 196 °C

Question: Which melting point does the source give for N#CC1(C#N)CCOCC1 here?
Answer: 110 to 112 °C

Question: With COCn1ccnc1C(O)(c1ccccc1)c1cccc(C(F)(F)F)c1 (configuration not stated) as the compound, how does the melting point read?
Answer: 152 to 154 °C

Question: With O=C(O)c1ccc(F)cc1Sc1ccc(F)cc1 as the compound, how does the melting point read?
Answer: 209 to 218 °C

Question: For CCOC(=O)c1sc(Cl)nc1C(Cl)(Cl)Cl, which melting point is on record?
Answer: 42.5 to 43.5 °C

Question: Which melting point does the source give for CCCCc1nc(CC(=O)OC)c(Cl)n1Cc1ccc(NC(=O)c2ccccc2C(=O)O)cc1 here?
Answer: 150 to 152 °C

Question: For COC(=O)C(Br)c1nsc2ccc(-n3c(=O)cc(C(F)(F)F)n(C)c3=O)cc12 (configuration not stated), which melting point is on record?
Answer: 84 to 87 °C

Question: With COC(=O)/C(=N/O)c1cccc([N+](=O)[O-])c1 as the compound, how does the melting point read?
Answer: 140 °C

Question: With CC(=O)SCCc1cccc(N)n1 as the compound, how does the melting point read?
Answer: 55 to 59 °C

Question: With CC(C)CCNC(=O)c1ccccc1-c1ccccc1CN1C(=O)c2ccccc2C1=O as the compound, how does the melting point read?
Answer: 169 °C

Question: For CC(C)=C1C(=O)N(c2ccc(O)cc2)C(=O)/C1=C(/c1cc(C)sc1C)C(C)C, which melting point is on record?
Answer: 136 to 138 °C

Question: With CCOC(=O)C(C)c1ccc(-c2ccc(F)cc2F)c(F)c1 (configuration not stated) as the compound, how does the melting point read?
Answer: 36 to 38 °C

Question: For CC(C)(C)OC(=O)Nc1ccc(-c2ccc(F)cc2)cc1[N+](=O)[O-], which melting point is on record?
Answer: 155 to 167 °C

Question: With O=C(OCC1OC(Oc2ccc([N+](=O)[O-])cc2)C(OC(=O)c2ccccc2)C(OC(=O)c2ccccc2)C1O)c1ccccc1 (configuration not stated) as the compound, how does the melting point read?
Answer: 180 to 181 °C

Question: For CCCC(CCC)C(=O)N[C@H](C(=O)N[C@H](CO)Cc1c[nH]c2ccccc12)[C@@H](C)CC, which melting point is on record?
Answer: 190 to 191 °C

Question: Which melting point does the source give for Nc1cccc(S(F)(F)(F)(F)F)c1 here?
Answer: 32 to 35 °C

Question: Which melting point does the source give for CCSc1[nH]c2cccc3c2c1CC1C3C=C(C)CN1C (configuration not stated) here?
Answer: 168 to 169 °C

Question: Which melting point does the source give for CC(=O)c1c(O)cccc1OCC(O)COc1ccc(Cl)cc1 (configuration not stated) here?
Answer: 112 to 114 °C

Question: Which melting point does the source give for C=C(F)C(F)(F)n1ncc(-c2ccc(S(N)(=O)=O)cc2)c(-c2ccc(F)cc2)c1=O here?
Answer: 230 to 232 °C

— a melting point compilation (Tetko et al.; mined from patent text by program, amines drawn as free bases though some values may be those of a salt)
